Read-outs that look alike come from different tables or passages of the source.

This series concerns OS patients.

Regarding `C#Cc1cccc(Nc2ncnc3cc(OCCOC)c(OCCOC)cc23)c1.Cl` [Erlotinib], where the note is “3 OS patients”, the overall clinical outcome is “dramatic improvement”. For the same compound, for the setting “OS patients on Erlotinib, after three months”, the “pain outcome after three months” value is “total disappearance and spontaneous pain drug removal”. In addition, the “only persistent side effect” value (human, in vivo) is recorded as “moderate acne reaction”. In addition, where the note is “human, in vivo”, the “side effect leading to dose reduction” value is “abdominal pain and nausea”. The “keratoderma regression completed at day” value runs as follows: (patient 2 (mild PPK), Erlotinib 50 mg) 30 days; (patients 1 and 3 (severe PPK)) 90 days. For the same compound, the reduction of pain result reads like this: (patient 3, Erlotinib started at 50 mg) “later”; (patients 1 and 2, Erlotinib started at 100 mg (patient 2 reduced to 50 mg)) “rapid reduction of pain was observed within days”.

Values taken from patent US12491186B2, “EGFR inhibitors for treating keratodermas” (INSERM (Institut National de la Santé et de la Recherche …, priority 2018, dated 2025).
